Patent publication US7250158B1, “Skin lightening agents, compositions and methods” (Conopco, Inc., priority 2006, dated 2007)

System: Melanoderm cultures
Assay: Solvable melanin assay on Melanoderm cultures (3-D skin model)
Type: cell-based
Conditions: for OD = 490 nm (melanin content): Melanoderm cultures fed every other day for 2 weeks, Untreated control 1.259, ETOH control 1.035
Procedure: This experiment was carried out using a Melanoderm cultures. […] was measured using a chromameter to assay the degree of melanization of a 3-D skin model. Melanoderm cultures were obtained from MatTek Corporation, Ashland, Mass. The Melanoderm was maintained according to the manufacturer's instructions. The basal media used for the maintenance of the Melanoderm cultures was DMEM supplemented with unspecified quantities of Epidermal growth factor, Insulin, Hydrocortisone, and proprietary epidermal differentiation compounds, in addition to anti-fungal and antibiotics. For the long term maintenance of the Melanoderms, the basal media was supplemented with both bFGF and a-MSH, compounds which are stimulators of melanocyte growth and melanogenesis. The cultures were fed every other day for a total of 2 weeks—fresh active preparations, prepared in DMSO or culture media, were also applied to the Melanoderms when feeding was performed. Each treatment condition was done in duplicate and digital photographs were taken of the Melanoderm cultures to assess overall pigmentation. As well, microscopic images of the Melanoderms were done to assess the cell viability of the keratinocytes and melanocytes. For further evidence that the treatments were/not cytotoxic, an LDH assay (Promega, Madison, Wis.) was performed on the supernatants from 24 hour post-treatment cultures. After treatment, tissues are usually frozen until completion of the experiment. Thaw tissues, a few at a time and place in D-PBS to remove excess phenol red from the culture medium and residual test article. Remove a single tissue from the insert. Blot dry and place in 1.7 ml. microfuge tube. Repeat for all samples. Add 250 ul Solvable™ (Tissue and Gel Solubilizer 0.5 M—Packard BioScience Co. Catalogue No. 6NE9100 (NEF910)). Close the tube and make sure that the tissue is completely submerged. Incubate at 60° C. overnight along with standards. In the morning, vortex the samples. Sometimes thick tissues will require additional time to complete the solution process. To Prepare Standard: Dissolve Melanin (Sigma cat. M 8631) in Solvable at 1 mg/ml. The solution may be warmed gently for 15 minutes at 37° C. Store solution in dark. To Prepare Standard Curve: Prepare dilutions from the standard containing 0 ug to 250 ug of melanin in a total of 250 ul Solvable. Incubate dilutions along with samples. To Read Assay: Cool samples and standards. Centrifuge at 13,000 rpm for 5 minutes to pellet. Fill microwell plate (C-96) with 200 ul each of samples and standards. There is some foaming of samples when pipetted. Blow gently across the samples to break bubbles prior to reading the plate. Read plate at […].

For `O=C(O)C(=O)Cc1ccc(O)cc1` [4-hydroxyphenylpyruvate], the “OD = 490 nm (melanin content)” value (5 uM) was 1.236, the “OD = 490 nm (melanin content)” value (50 uM) was 0.687 and the “OD = 490 nm (melanin content)” value (500 uM) was 0.565. For the same compound, the “OD = 490 nm (melanin content)” value (1000 uM) was 0.453 and the “effect on melanin synthesis” value (conclusion from Table 5, Melanoderm cultures) was “reduce melanin synthesis”.
